In US12239133B2, “Herbicidal composition” (ISHIHARA SANGYO KAISHA, LTD., priority 2019, dated 2025):

How the values were obtained:
Format in all cases: in vivo
[1] = system: velvetleaf (Abutilon theophrasti Medik.); experiment: Example 1: pot test, foliar treatment of velvetleaf, visual growth inhibition rate; details: 12th day after foliar treatment
Procedure: (§1) Upland field soil was put into a 1/1,000,000 hectare pot, and seeds of velvetleaf (Abutilon theophrasti Medik.) were sown. […] Further, the growth inhibition rate (expected value) was calculated in accordance with the Colby's formula.

[2] = system: velvetleaf (Abutilon theophrasti Medik.); experiment: Example 2: pot test, foliar treatment of velvetleaf, visual growth inhibition rate; details: 15th day after foliar treatment
Procedure: as §1

[3] = system: velvetleaf (Abutilon theophrasti Medik.); experiment: Example 3: pot test, foliar treatment of velvetleaf, pyroxsulam versus penoxsulam
Procedure: as §1

CCn1ncc(C(=O)c2ccc(S(C)(=O)=O)c(OCCOC)c2C)c1OC(C)OC(=O)OC (stereo not drawn) [Tolpyralate, tolpyralate]
Growth inhibition rate (%) Measured value (A) ([1]; dose 2.5 g/ha): 20% | Growth inhibition rate (%) Measured value (A) ([1]; dose 3.75 g/ha): 27% | Growth inhibition rate (%) Measured value (A) ([2]; dose 2.5 g/ha): 37% | Growth inhibition rate (%) Measured value (A) ([3]; dose 2.5 g/ha, 8th day after foliar treatment): 10%

COc1cc(OC)n2nc(NS(=O)(=O)c3c(C(F)(F)F)ccnc3OC)nc2n1 [Pyroxsulam, pyroxsulam]
Growth inhibition rate (%) Measured value (A) ([1]; dose 0.5 g/ha): 2% | Growth inhibition rate (%) Measured value (A) ([1]; dose 1.5 g/ha): 17% | Growth inhibition rate (%) Measured value (A) ([1]; dose 2.25 g/ha): 25% | Growth inhibition rate (%) Measured value (A) ([1]; dose 3 g/ha): 27% | Growth inhibition rate (%) Measured value (A) ([2]; dose 0.125 g/ha): 0% | Growth inhibition rate (%) Measured value (A) ([2]; dose 0.25 g/ha): 0% | Growth inhibition rate (%) Measured value (A) ([2]; dose 0.5 g/ha): 0% | Growth inhibition rate (%) Measured value (A) ([2]; dose 3 g/ha): 20% | Growth inhibition rate (%) Measured value (A) ([2]; dose 4 g/ha): 30% | Growth inhibition rate (%) Measured value (A) ([2]; dose 5 g/ha): 33% | Growth inhibition rate (%) Measured value (A) ([2]; dose 6 g/ha): 35% | Growth inhibition rate (%) Measured value (A) ([3]; dose 0.5 g/ha, 8th day after foliar treatment): 0% | Growth inhibition rate (%) Measured value (A) ([3]; dose 3 g/ha, 8th day after foliar treatment): 32%

COc1cnc(OC)n2nc(NS(=O)(=O)c3c(OCC(F)F)cccc3C(F)(F)F)nc12 [Penoxsulam, penoxsulam]
inhibition at 0.5 g/ha ([3]; Abutilon theophrasti, dose 0.5 g/ha, 8th day after foliar treatment, read-out: Growth inhibition rate (%) Measured value (A)): 0% | inhibition at […] ([3]; Abutilon theophrasti, dose 0.75 g/ha, 8th day after foliar treatment, read-out: Growth inhibition rate (%) Measured value (A)): 0% | inhibition at 3 g/ha ([3]; Abutilon theophrasti, dose 3 g/ha, 8th day after foliar treatment, read-out: Growth inhibition rate (%) Measured value (A)): 37% | grow inhibition compared with expected (Colby) ([3]; combined with tolpyralate, summary in words of Table 3, 8th day): a grow inhibition rate more than expected was not obtained
